Experimental data as given in patent publication US9539238B2, “Pharmaceutical composition comprising a biguanide derivative as an active ingredient for preventing or treating glioblastoma” (ImmunoMet Therapeutics, Inc., priority 2015, dated 2017).
“Also recorded” adds a separate entry of the source.

Columns and labels:
[1] = test system: GSC11; assay: 18F-FDG uptake (cellular metabolism); type: cell-based, human; settings: 15 minutes incubation, radioactivity normalized to protein content
Method: In order to assess the effect of drugs on the cellular metabolism, ^18F-FDG uptake was examined, GSC11 were plated on 12-well plates with 3×10^5 cells per well for 24 hours. The medium was changed to a glucose-free DMEM medium (Gibco, Invitrogen Korea, Seoul, South Korea) containing approximately 0.5 μCi of ^18F-FDG, followed by incubation for 15 minutes. The cells were washed with phosphate-buffered saline 3 times and 0.1 ml of lysis buffer was added to each well. The lysed cells were then harvested to measure the amount of radioactivity by Wallac 148 Wizard 3 gamma-counter (PerkinElmer Life and, Analytical Science, Shelton, Conn., USA). The radioactivity measured was normalized to protein content.

[2] = test system: AMPK and mTOR pathway of GSC11 and X01 cells; assay: Western blotting of AMPK-mTOR pathway-related proteins; type: cell-based, human
Method: (§1) For Western blotting, 20 μg total protein from each sample was treated with Laemmli sample buffer and heated at 100° C. for 5 minutes. This was then loaded into each well and was resolved by 8% SDS-polyacrylamide gel electrophoresis (PAGE) and eleetroblotted onto nitrocellulose membranes (GE Healthcare life-Sciences). Membranes were blocked in 5% non-fat dry milk in TBS-T, and incubated with antibodies for AMPK-mTOR pathway-related proteins, stemness markers, and EMT-related markers overnight at 4° C., and then probed with peroxidase-conjugated goat anti-rabbit IgG (1:2000, santa cruz) for 1 hour at room temperature. The washes were repeated and the membrane was developed with a chemiluminescent agent (ECL; Amersham Life Science, Inc.). Band densities were measured using TINA image software (Raytest, Straubenhardt, Germany).

[3] = test system: stem cell; assay: MTT cell viability assay; type: cell-based; settings: treated for 5 days, sublethal dose
Method: The effect of HL156A, TMZ, and combined HL156A and temozolomide on the survival of cells was determined by 3-(4,5-dimethylthiazol-2-yl)-2,5-diphenyl tetrazolium bromide (MTT) assay. Cells were seeded in 96-well plates and incubated at 37° C. for 24 hours and treated with HL156A, TMZ, and the combination thereof for 5 days. MTT reagent (10 μl/well) was added, incubated at 37° C. for 4 hours and the absorbance was measured at 490 nm. Each experiment was repeated three times and the results were expressed as % viable cells over control.

[4] = test system: G-GSC11 spheroids; assay: 3D collagen I matrix invasion assay; type: cell-based, human
Method: The G-GSC11s grown in spheroid were cultured in collagen I matrices using polydimethylsiloxane (PDMS)-based micro-wells (diameter and depth of microwells: […] and 500 μm). The microwells were treated with a 1% poly(ethyleneimine) (Sigma-Aldrich, St. Louis, Mo., USA) solution for 10 minutes followed by 0.1% glutaraldehyde (Sigma-Aldrich, St. Louis, Mo., USA) for 30 minutes and washed with PBS overnight lo make PDMS wells adherent to collagen. The 4 mg/ml collagen I matrices are prepared from high-concentration rat tail collagen I (BD Bioscience, CA, USA) using the recommended manual provided by the manufacturer. Briefly, the amounts of 10× phosphate buffered saline (PBS), 1N NaOH, sterile dH2O, and collagen I were mixed to create gels based on the desired final concentration. The solution was well mixed and kept at 4° C. before use. To encapsulate G-GSC11 spheroid, 10 μl of a collagen I solution (4 mg/ml) were pipetted into the micro-well, single G-GSC11 spheroid was placed onto collagen I matrices from the culture plate, and 10 μl of a collagen I solution (4 mg/ml) was dropped onto G-GSC11 spheroid. The platform was incubated at 37° C. and 5% CO2 for 30 minutes. The cell viability was characterized by staining G-GSC11 spheroid with 8 μM Ethidium homodimer-1 (Invitrogen Korea, Seoul, South Korea) for 30 minutes at 37° C. before implantation in collagen matrix. After fall gelation, a superlayer of culture medium consisting of DMEM/F-12 with 2% 1×B27, 20 ng/ml 0.02% bFGF, 20 ng/ml 0.2% EGF, and 1% antibiotic-antimycotic solution (100× Gibco, Invitrogen Korea, Seoul, South Korea) was then added. To observe drug effects, drugs were mixed with medium considering the final concentration of each drug. […] To quantitate the invasion assay, the maximal area covered by migrating edges of cells was used as a parameter for defining invasiveness (invaded area at certain time/spheroid area at initial time×100). Data was analyzed through image analysis software ImageJ (NIH, Bethesda, Md., USA).

[5] = test system: GSC11 and X01 cells; assay: Neurosphere formation assay; type: cell-based, human; settings: GSC11 and X01, cultured for 3 weeks
Method: For Neurosphere formation assay, the GSC11 and X01 cells were cultured in medium consisting of DMEM/F-12 with 2% 1×B27, 20 ng/ml 0.02% bFGF, 20 ng/ml 0.02% EGF, and 1% antibiotic-antimycotic solution (100×, Gibco, Invitrogen Korea, Seoul, South Korea). The cells were cultured in different conditions for 3 weeks. […] Photographs of cells were obtained with a digital camera (DP70 Digital Microscope Camera; Olympus), using DP Controller software (Olympus).

[6] = test system: stemness markers such as nestin, CD133, Sox-2, Notch 1, Notch 2, and Oct3/4 in GSC11 or X01; assay: Western blotting of stemness markers; type: cell-based, human
Method: as §1

[7] = test system: GSC11 orthotopic xenograft; assay: Orthotopic xenograft mouse model; type: in vivo, male athymic nude mice; settings: stained tumors
Method: Finally, the effect of the drags on the tumors of orthotopic xenograft mice was analyzed, 4- to 8-week-old male athymic nude mice (Central Lab. Animal Inc., Seoul, South Korea) were used for experiments. Mice were housed in micro-isolator cages under sterile conditions and observed for at least 1 week before study initiation to ensure proper health. Lighting, temperature, and humidity were controlled centrally. All experimental procedures were approved by Yonsei University College of Medicine Institutional Animal Care and Use Committee. Mice were anesthetized with a solution of Zoletil® (30 mg/kg; Virbac Korea, Seoul, South Korea) and xylazine (10 mg/kg; Bayer Korea, Seoul, South Korea) delivered intraperitoneally. GSC11 were implanted into the right frontal lobe of nude mice using a guide-screw system within the skull. Mice received 5×10^5 cells via a Hamilton syringe (Dongwoo Science Co., Seoul, South Korea) inserted to a depth of 4.5 mm. Then, 15 mg/kg of HL156A, 66.6 mg/kg of TMZ, and their combination were administrated to mice (n=5 per group). HL156A was given to mice by oral administration every other day until the duration of the experiment and TMZ was administrated intraperitoneally, for 5 days from the day of tumorsphere injection. The body weight of mice was checked every other day. […]

[8] = test system: GSC11 and X01; assay: Neuro-glial differentiation (neuronal marker expression); type: cell-based, human
[9] = test system: EMT-related markers such as β-catenin, zeb1, N-cadherin, and snail; assay: Western blotting of EMT-related markers; type: cell-based, human; settings: tumorspheres
Method: as §1

N=C(NC(=N)N1CCCC1)Nc1ccc(OC(F)(F)F)cc1 [HL156A, N—(N-(4-(trifluoromethoxy)phenyl)carbamimidoyl)pyrrolidine-1-carboximidamide]
18F-FDG uptake [1]: markedly decreased | AMPK activation and consequent mTOR inhibition [2]: did not show expected AMPK activation | cell viability (% viable cells over control) [3]: minimal effect | cell viability during the invasion experiment [4]: no significant cell death | invasiveness ([4]; implanted cells and drugs together (FIG. 3A)): decreased invasiveness; also recorded: lesser degree of invasiveness | invasiveness ([4]; pre-implanted, drug treatment 12 hours after implantation (FIG. 3B)): decreased invasiveness | number of neurospheres [5]: markedly decreased | expression of stemness markers (CD133, OCT 3/4, Sox-2, Notch 1, Notch 2) [6]: Decreased expression | tumor margin versus control [7]: less irregular margin | neuro-glial differentiation (expression of olig2, Tuj1, GFAP) [8]: did not promote | expression of β-catenin, zeb1, and N-cadherin (EMT-related markers) [9]: altered; also recorded: diminished
